Data from EPA's ToxRefDB 2.

Tests used:
mouse = conditions: Carcinogenicity, cd1, Oral, Feed, dose end: 78 week, group: systemic
rat [1] = conditions: Multigenerational reproductive toxicity study, sprague dawley, Oral, Feed, dose end: 2 generation
rat [2] = conditions: Combined chronic toxicity/carcinogenicity, sprague dawley, Oral, Feed, dose end: 31 month, group: systemic
rat [3] = conditions: Prenatal developmental toxicity study, sprague dawley, Oral, Gavage/Intubation, dose end: 15 GD
dog = conditions: Chronic toxicity; beagle; Oral; Feed; dose end: 12 month; group: systemic; systemic / hematology / anemia / anemia - hemolytic + systemic / hematology / erythrocyte (rbc) count differential / erythrocyte (rbc) + …
primate = conditions: Subchronic oral toxicity in nonrodent, rhesus, Feed, dose end: 6 month, group: systemic, systemic / organ weight / thyroid gland / absolute
rat [4] = conditions: Subchronic oral toxicity in rodents, sprague dawley, Feed, dose end: 90 day, group: systemic, systemic / in life observation / clinical signs / soft stools + systemic / in life observation / clinical signs / defecation (diarrhea)
[5] = systemic / clinical chemistry / thyroxine (t4) / thyroxine (t4), total
[6] = systemic / pathology microscopic / liver / adenoma + systemic / pathology microscopic / lung / adenoma + systemic / clinical chemistry / …
[7] = group: offspring, systemic / organ weight / liver / nos
[8] = group: parental, systemic / organ weight / testes / nos
[9] = group: reproductive, reproductive / reproductive performance / precoital interval / precoital interval
[10] = group: developmental, developmental / developmental malformation / bone / bent + developmental / developmental malformation / bone / incomplete ossification + …
[11] = group: maternal, reproductive / reproductive performance / postimplantation loss / postimplantation loss + reproductive / reproductive performance / …
[12] = left thyroid + systemic / clinical chemistry / [other] / [other] + systemic / in life …

## S=C([S-])NCCNC(=S)[S-].[Mn+2] [Maneb]
mouse; [5]
  LEL: 10.8 mg/kg/day
  NEL: < 10.8 mg/kg/day
mouse; [6]
  LOAEL: > 355 mg/kg/day
  NOAEL: ≥ 355 mg/kg/day
Rat [1]; group: offspring, developmental / developmental landmark / vaginal opening / vaginal opening
  LOAEL: 106 mg/kg/day
Rat [1]; group: offspring, developmental / developmental landmark / vaginal opening / vaginal opening + systemic / in life observation / body weight / offspring (pup) …
  NOAEL: 25.1 mg/kg/day
Rat [1]; [7]
  LEL: 5.8 mg/kg/day
  NEL: < 5.8 mg/kg/day
Rat [1]; group: parental, systemic / organ weight / lung / nos
  LOAEL: 21.2 mg/kg/day
Rat [1]; group: parental, systemic / organ weight / lung / nos + systemic / in life observation / body weight / body weight + systemic / in life observation / body …
  NOAEL: 5.3 mg/kg/day
Rat [1]; [8]
  LEL: 5.3 mg/kg/day
  NEL: < 5.3 mg/kg/day
Rat [1]; [9]
  LEL: 106 mg/kg/day
  LOAEL: > 106 mg/kg/day
  NEL: 25.1 mg/kg/day
  NOAEL: ≥ 106 mg/kg/day
Rat [2]; systemic / organ weight / adrenal gland / absolute
  LEL: 21.8 mg/kg/day
Rat [2]; systemic / organ weight / adrenal gland / absolute + systemic / pathology microscopic / pituitary gland / adenoma + systemic / pathology …
  NEL: 7.32 mg/kg/day
Rat [2]; systemic / pathology microscopic / urinary bladder / dysplasia + systemic / clinical chemistry / [other] / [other] + systemic / clinical …
  LOAEL: 68.4 mg/kg/day
Rat [2]; systemic / pathology microscopic / urinary bladder / dysplasia + systemic / pathology microscopic / skeletal muscle / sarcoma + systemic / …
  NOAEL: 20.4 mg/kg/day
Rat [3]; [10]
  LEL: 500 mg/kg/day
  LOAEL: > 500 mg/kg/day
  NEL: 100 mg/kg/day
  NOAEL: ≥ 500 mg/kg/day
Rat [3]; [11]
  LEL: 100 mg/kg/day
  LOAEL: 100 mg/kg/day
  NEL: 20 mg/kg/day
  NOAEL: 20 mg/kg/day
dog
  LEL: 7.18 mg/kg/day
  LOAEL: 33.8 mg/kg/day
  NEL: 1.71 mg/kg/day
  NOAEL: 6.36 mg/kg/day
primate; left thyroid
  LEL: 15.5 mg/kg/day
  LOAEL: 15.5 mg/kg/day
primate; [12]
  NEL: 5.2 mg/kg/day
  NOAEL: 5.2 mg/kg/day

## CCCCCC[C@H]1C(=O)O[C@H](C)[C@H](NC(=O)c2cccc(NC=O)c2O)C(=O)O[C@@H](C)[C@@H]1OC(=O)CC(C)C [Antimycin A]
Rat [4]
  LEL: 0.5 mg/kg/day
  LOAEL: 0.5 mg/kg/day
  NEL: < 0.5 mg/kg/day
  NOAEL: < 0.5 mg/kg/day
